Laboratory results published in patent US7932263B2, “Therapeutic treatment” (AstraZeneca AB, priority 2003, dated 2011).

Experiments:
Type in all cases: in vivo, mouse
[1] = tested on: apo-E knockout mice fed high-cholesterol diet; experiment: Quantitative analysis of atherosclerotic plaques (Sudan IV stained aortas); settings: 1 mg/kg/d of each drug, 12 weeks, vs high-cholesterol diet alone
Protocol: Five pairs of C57BL/6J mice and three pairs of homozygous apo-E knockout mice (on C57BL/6J background) were obtained from Jackson Laboratories (Bar Harbor, Me.). They were bred by brother-sister mating and housed in a room lit from 6:00 AM to 6:00 PM and kept at 21° C. The C57BL/6J mice (n=10) were continued on regular diet for the entire study period. The apo-E knockout mice were divided into four groups. Group 1 (n=10) animals were given high-cholesterol diet (1% cholesterol) alone for 12 weeks since the age of 6 weeks; Group 2 (n=10) animals were given high-cholesterol diet with candesartan (1 mg/kg/d) for 12 weeks since the age of 6 weeks; Group 3 (n=10) animals were given high-cholesterol diet with the rosuvastatin (1 mg/kg/d) for 12 weeks since the age of 6 weeks; Group 4 (n=10) animals were given high-cholesterol diet with candesartan (1 mg/kg/d) and rosuvastatin (1 mg/kg/d) for 12 weeks since the age of 6 weeks. At the end of 12-week-treatment, the mice were sacrificed and subject to studies described below. All experimental procedures were performed in accordance with protocols approved by the institutional Animal Care and Usage Committee of University of Arkansas for Medical Sciences. Quantitative Analysis of Atherosclerotic Plaques At the end of 12-week-treatment, 5 mice from each group were euthanized and the aortas were separated from surrounding tissues. After removal of the adventitial fat tissue, the aortas were opened longitudinally from the aorta arch to the iliac bifurcation, and fixed in 10% formalin for 24 hours. Then the aortas were rinsed in 70% alcohol briefly, stained with Sudan IV solution for 15 minutes, differentiated in 80% alcohol for 20 minutes and washed in running water for 1 hour (Russell L. Techniques for studying atherosclerotic lesion, Lab Invest. 1958; 7:42-47). […] The images were analyzed by soft ware (Image Pro Plus, Media Cybernetics). […] Statistical significance was determined in multiple comparisons among independent groups of data in which ANOVA and the F test indicated the presence of significant differences. […]

[2] = tested on: LOX-1; experiment: LOX-1 expression in aorta by RT-PCR and Western blot; settings: aorta of apo-E knockout mice, high-cholesterol diet, 1 mg/kg/d of each drug, 12 weeks; vs high-cholesterol diet alone
Protocol: (§1) Five pairs of C57BL/6J mice and three pairs of homozygous apo-E knockout mice (on C57BL/6J background) were obtained from Jackson Laboratories (Bar Harbor, Me.). They were bred by brother-sister mating and housed in a room lit from 6:00 AM to 6:00 PM and kept at 21° C. The C57BL/6J mice (n=10) were continued on regular diet for the entire study period. The apo-E knockout mice were divided into four groups. Group 1 (n=10) animals were given high-cholesterol diet (1% cholesterol) alone for 12 weeks since the age of 6 weeks; Group 2 (n=10) animals were given high-cholesterol diet with candesartan (1 mg/kg/d) for 12 weeks since the age of 6 weeks; Group 3 (n=10) animals were given high-cholesterol diet with the rosuvastatin (1 mg/kg/d) for 12 weeks since the age of 6 weeks; Group 4 (n=10) animals were given high-cholesterol diet with candesartan (1 mg/kg/d) and rosuvastatin (1 mg/kg/d) for 12 weeks since the age of 6 weeks.
(§2) At the end of 12-week-treatment, 5 mice from each group were euthanized and the aortas (from aorta arch to iliac bifurcation) were separated from surrounding tissues and stored on dry ice. Each aorta was cut into four segments, two of which were used to extract total RNA with the single-step acid-guanidinium thiocyanate-phenol-chloroform method as described earlier (27). […]

[3] = tested on: TIMP-1; experiment: TIMP-1 protein expression in aorta by Western blot; settings: aorta of apo-E knockout mice, high-cholesterol diet, 1 mg/kg/d of each drug, 12 weeks; vs high-cholesterol diet alone
Protocol: (§3) Five pairs of C57BL/6J mice and three pairs of homozygous apo-E knockout mice (on C57BL/6J background) were obtained from Jackson Laboratories (Bar Harbor, Me.). They were bred by brother-sister mating and housed in a room lit from 6:00 AM to 6:00 PM and kept at 21° C. The C57BL/6J mice (n=10) were continued on regular diet for the entire study period. The apo-E knockout mice were divided into four groups. […]
(§4) Each mouse aorta was cut into four segments. […] Membranes were washed and then incubated with 1:5000 dilution specific secondary antibody (Amersham Life Science) for 2 hours at room temperature, and the membranes were washed and detected with the ECL system (Amersham Life Science). The relative intensities of protein bands were analyzed by Scan-gel-it software (Li D Y, Zhang Y C, Sawamura T, Mehta J L. Circ Res. 1999; 84:1043-1049).
(§5) All data represent mean of duplicate samples. […] Statistical significance was determined in multiple comparisons among independent groups of data in which ANOVA and the F test indicated the presence of significant differences. […]

[4] = tested on: TIMP-2; experiment: TIMP-2 protein expression in aorta by Western blot; settings: aorta of apo-E knockout mice, high-cholesterol diet, 1 mg/kg/d of each drug, 12 weeks; vs high-cholesterol diet alone
Protocol: as §3, §4, §5

[5] = tested on: MMP-2; experiment: MMP-2 expression in aorta by RT-PCR and Western blot; settings: aorta of apo-E knockout mice, high-cholesterol diet, 1 mg/kg/d of each drug, 12 weeks; vs high-cholesterol diet alone
Protocol: as §1, §2

[6] = tested on: MMP-1; experiment: MMP-1 expression in aorta by RT-PCR and Western blot; settings: aorta of apo-E knockout mice, high-cholesterol diet, 1 mg/kg/d of each drug, 12 weeks; vs high-cholesterol diet alone
Protocol: as §1, §2

[7] = tested on: MMP-9; experiment: MMP-9 expression in aorta by RT-PCR and Western blot; settings: aorta of apo-E knockout mice, high-cholesterol diet, 1 mg/kg/d of each drug, 12 weeks; vs high-cholesterol diet alone
Protocol: as §1, §2

[8] = tested on: CD40; experiment: CD40 expression in aorta by RT-PCR and Western blot; settings: aorta of apo-E knockout mice, high-cholesterol diet, 1 mg/kg/d of each drug, 12 weeks; vs high-cholesterol diet alone
Protocol: as §1, §2

Compound | decrease of atherosclerosis [1] | LOX-1 expression (mRNA and protein) [2] | extent of atherosclerosis (in words) [1] | TIMP-1 protein expression [3] | TIMP-2 protein expression [4] | MMP-2 expression (mRNA and protein) [5] | MMP-1 expression (mRNA and protein) [6] | MMP-9 expression (mRNA and protein) [7] | CD40 expression (mRNA and protein) [8]
CCOc1nc2cccc(C(=O)O)c2n1Cc1ccc(-c2ccccc2-c2nnn[nH]2)cc1 [candesartan] | about 35% |  |  |  |  |  |  |  | 
CC(C)c1nc(N(C)S(C)(=O)=O)nc(-c2ccc(F)cc2)c1/C=C/[C@@H](O)C[C@@H](O)CC(=O)O [rosuvastatin] | ~25% | decreased the LOX-1 expression (mRNA and protein), albeit modestly | decreased the extent of atherosclerosis | reduced TIMP-1 and TIMP-2 expression by a small degree | reduced TIMP-1 and TIMP-2 expression by a small degree | decreased MMP-1, -2 and -9 expression (mRNA and protein), albeit modestly | decreased MMP-1, -2 and -9 expression (mRNA and protein), albeit modestly | decreased MMP-1, -2 and -9 expression (mRNA and protein), albeit modestly | slightly decreased CD40 expression
